Data: patent US4661505A, “Leukotriene antagonists” (Eli Lilly and Company, priority 1982, dated 1987)
Counter-ions that a name gives are not always drawn.

Biological target: T1, LTD4 evoked ileal contractions (Cavia porcellus, UniProt Q2NNR5)
T1 construct: A section of terminal ileum was removed, the lumen cleaned, and the tissue divided into 2.5 cm. segments; from tissue; host or cells: terminal ileum of male Hartley guinea pigs
T1 sequence (Q2NNR5 1-340): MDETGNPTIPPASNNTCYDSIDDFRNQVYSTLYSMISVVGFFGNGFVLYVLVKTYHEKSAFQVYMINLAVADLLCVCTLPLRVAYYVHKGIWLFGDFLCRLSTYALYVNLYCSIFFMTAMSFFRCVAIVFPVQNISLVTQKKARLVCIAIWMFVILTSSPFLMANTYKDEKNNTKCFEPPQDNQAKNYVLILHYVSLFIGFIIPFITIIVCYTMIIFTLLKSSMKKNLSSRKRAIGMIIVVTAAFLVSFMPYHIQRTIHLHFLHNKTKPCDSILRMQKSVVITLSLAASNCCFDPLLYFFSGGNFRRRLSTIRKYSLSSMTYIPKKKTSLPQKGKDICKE
Assay: Antagonism of LTD4-evoked contraction of isolated guinea pig ileum (single concentration)
Format: cell-based
Conditions: pure LTD4, 5 minute exposure, read-out: Percent Inhibition of LTD4 evoked ileal contractions; for inhibition at 1 µM: 1 × 10^-6 M; for inhibition at 3 µM: 3 × 10^-6 M; for inhibition at 10 µM: 1 × 10^-5 M
Description: Male, Hartley guinea pigs weighing 200-450 grams were killed by decapitation. A section of terminal ileum was removed, the lumen cleaned, and the tissue divided into 2.5 cm. segments. The ilea were mounted in 10 ml. tissue baths containing Krebs-bicarbonate solution of the following composition in mmoles/liter: KCl, 4.6; CaCl2.2H2 O, 1.2; KH2 PO4, 1.2; MgSO4.7H2 O, 1.2; NaCl, 118.2; NaHCO3, 24.8 and dextrose, 10.0. The bath fluid was maintained at 37° C. and aerated with 95 percent oxygen and 5 percent CO2. In addition, the buffer contained 1×10^-6 M atropine to reduce ileal spontaneous activity. In studies with crude SRS-A, 1×10^-6M pyrilamine was used to mitigate the actions of histamine present along with the biologically active leukotrienes. Isometric measurements were made with a Grass FTO3C force-displacement transducer and recorded on a Grass polygraph as change in grams of force. A passive force of 0.5 g. was applied to the tissues. After an appropriate equilibration period, single submaximal control responses to either SRS-A or pure LTD4 were obtained. Following a 5 minute exposure of the ileum to an experimental drug, the control concentration of SRS-A or LTD4 was added to the tissue bath. The response of the ileum to SRS-A or LTD4 in the presence of the drug was compared to the response in the absence of the drug.
*Compounds marked with an asterisk were tested using crude SRSA as the
ileumcontracting agent; all other compounds were tested using pure

| Structure (SMILES) | inhibition at 1 µM [%] | inhibition at 3 µM [%] | inhibition at 10 µM [%] |
| --- | --- | --- | --- |
| CCCc1c(OCCCCc2nnn[nH]2)ccc(C(C)=O)c1O [Example 8, 5-[4-(4-Acetyl-3-hydroxy-2-propylphenoxy)butyl]-tetrazole] | 89 | 100 |  |
| CCCc1c(OCCCCCCCCCCCCc2nnn[nH]2)ccc(C(C)=O)c1O [Example 14, 5-[12-(4-Acetyl-3-hydroxy-2-propylphenoxy)dodecyl]-tetrazole] | 22 | 47 |  |
| CCCc1c(OC(CCCCC(=O)O)c2ccc(Cc3ccccc3)cc2)ccc(C(C)=O)c1O (stereo not shown) [Example 15, 6-(4-Acetyl-3-hydroxy-2-propylphenoxy)-6-(4-benzylphenyl)hexanoic acid] |  |  | 37 |
| CC(=O)c1ccc(OC(CCCCC(=O)O)c2ccc(Cc3ccccc3)cc2)cc1O (stereo not shown) [Example 16, 6-(4-Acetyl-3-hydroxyphenoxy)-6-(4-benzylphenyl)hexanoic acid] |  | 70 | 86 |
| CC(=O)c1ccc(OC(CCCCC(=O)O)c2ccc(-c3ccccc3)cc2)cc1O (stereo not shown) [Example 18, 6-(4-Acetyl-3-hydroxyphenoxy)-6-(4-biphenyl)hexanoic acid] |  | 34 |  |
| CCCc1c(OC(CCCCC(=O)O)c2ccccc2)ccc(C(C)=O)c1O (stereo not shown) [Example 19, 6-(4-Acetyl-3-hydroxy-2-propylphenoxy)-6-phenylhexanoic acid] |  | 35 | 64 |
| CCCc1c(OCCCc2nnn[nH]2)ccc(C(C)=O)c1O [Example 23, 5-[3-(4-Acetyl-3-hydroxy-2-propylphenoxy)propyl]-tetrazole] | 15 |  |  |
| C=CCc1c(OCCCCCC(=O)O)ccc(C(C)=O)c1O [Example 26, 6-(4-Acetyl-3-hydroxy-2-allylphenoxy)-hexanoic acid] |  | 29 |  |
| CCCc1c(OCCCCCCC(=O)O)ccc(C(C)=O)c1O [Example 29, 7-(4-Acetyl-3-hydroxy-2-propylphenoxy)heptanoic acid] | 43 |  | 84 |
| CCCc1c(OCCCCCCCC(=O)O)ccc(C(C)=O)c1O [Example 30, 8-(4-Acetyl-3-hydroxy-2-propylphenoxy)octanoic acid] | 62 |  | 94 |
| CCCc1c(OCCCCCCCCCC(=O)O)ccc(C(C)=O)c1O [Example 32, 10-(4-Acetyl-3-hydroxy-2-propylphenoxy)decanoic acid] | 46 | 85 | 92 |
| CCCc1c(OCCCCCCCCCCC(=O)O)ccc(C(C)=O)c1O [Example 33, 11-(4-Acetyl-3-hydroxy-2-propylphenoxy)undecanoic acid] |  | 79 | 92 |
| CCCc1c(OCCCCCCN2CCOCC2)ccc(C(C)=O)c1O [Example 35, N-[6-(4-Acetyl-3-hydroxy-2-propylphenoxy)hexyl]morpholine hydrochloride] |  | 47 | 80 |
| CCCc1c(OCCCCCCN)ccc(C(C)=O)c1O [Example 36, 6-(4-Acetyl-3-hydroxy-2-propylphenoxy)hexylamine hydrochloride] | 26 | 42 |  |
| CCCc1c(OCCCCCCN2CCN(C)CC2)ccc(C(C)=O)c1O [Example 37, N-Methyl-N'-[6-(4-acetyl-3-hydroxy-2-propylphenoxy)hexyl]piperazine dihydrochloride] |  | 32 | 78 |
| CCCc1c(OCCCCCCN(C)C)ccc(C(C)=O)c1O [Example 38, N,N-Dimethyl-[6-(4-acetyl-3-hydroxy-2-propylphenoxy)hexyl]amine hydrochloride] |  | 30 | 60 |
| CCCc1c(OCCCCC(C)(C)c2nnn[nH]2)ccc(C(C)=O)c1O [Example 39, 5-[5-(4-Acetyl-3-hydroxy-2-propylphenoxy)-1,1-dimethylpentyl]-tetrazole] | 89 |  |  |
| CC(=O)c1ccc(OC(C)CCCCC(=O)O)cc1O (stereo not shown) [Example 41, 6-(4-Acetyl-3-hydroxyphenoxy)heptanoic acid] |  | 10 |  |

| Structure (SMILES) | inhibition at 1 µM [%] | inhibition at 3 µM [%] | inhibition at 10 µM [%] |
| --- | --- | --- | --- |
| CCCc1c(OCCCCCCO)ccc(C(C)=O)c1O [Example 42, 6-(4-Acetyl-3-hydroxy-2-propylphenoxy)-1-hexanol] |  | 46 | 74 |
| CCCc1c(OCCCCc2nnn[nH]2)ccc(C(=O)c2ccccc2)c1O [Example 43, 5-[4-(4-Benzoyl-3-hydroxy-2-propylphenoxy)butyl]-tetrazole] | 34 | 56 |  |
| CCCc1c(OCCCCC(C)(C)C(=O)OC)ccc(C(C)=O)c1O [Example 44, Methyl 6-(4-acetyl-3-hydroxy-2-propylphenoxy)-2,2-dimethylhexanoate] |  | 55 |  |
| CCCc1c(OCCCCC(C)(C)C(=O)O)ccc(C(C)=O)c1O [Example 45, 6-(4-Acetyl-3-hydroxy-2-propylphenoxy)-2,2-dimethylhexanoic acid] |  | 73 | 94 |
| COC(=O)C(C)(C)CCCCOc1ccc(C(C)=O)c(O)c1 [Example 46, Methyl 6-(4-acetyl-3-hydroxyphenoxy)-2,2-dimethylhexanoate] |  |  | 23 |
| CC(=O)c1ccc(OCCCCC(C)(C)C(=O)O)cc1O [Example 47, 6-(4-Acetyl-3-hydroxyphenoxy)-2,2-dimethylhexanoic acid] |  |  | 22 |
| CCCc1c(OC(CCC)CCCCC(=O)O)ccc(C(C)=O)c1O (stereo not shown) [Example 48, 6-(4-Acetyl-3-hydroxy-2-propylphenoxy)nonanoic acid] |  |  | 34 |
| CCCC(CCCCC(=O)O)Oc1ccc(C(C)=O)c(O)c1 (stereo not shown) [Example 49, 6-(4-Acetyl-3-hydroxyphenoxy)nonanoic acid] |  |  | 18 |
| CCCc1c(OCCCCCc2nnnn2CC(=O)O)ccc(C(C)=O)c1O [Example 50, 5-(1H)-[5-(4-Acetyl-3-hydroxy-2-propylphenoxy)pentyl]-1-tetrazolylacetic acid] | 66 |  |  |
| CCCc1c(OCCCCCc2nnn(CC(=O)O)n2)ccc(C(C)=O)c1O [Example 51, 5-(2H)-[5-(4-acetyl-3-hydroxy-2-propylphenoxy)pentyl]-2-tetrazolylacetic acid] | 69 |  |  |
| CCCc1c(OCCCCCc2nnnn2C)ccc(C(C)=O)c1O [Example 52, 1-Methyl-5-(1H)-[5-(4-acetyl-3-hydroxy-2-propylphenoxy)pentyl]-tetrazole] | 38 |  |  |
| CCCc1c(OCCCCC(=O)OCC)ccc(C(C)=O)c1O [Example 54, Ethyl 5-(4-acetyl-3-hydroxy-2-propylphenoxy)pentanoate] | 40 | 56 |  |
| CCCc1c(OCCCCC(N)=O)ccc(C(C)=O)c1O [Example 55, 5-(4-Acetyl-3-hydroxy-2-propylphenoxy)pentanoic acid amide] | 28 | 59 |  |
| CCCc1c(OCCCCC(=O)N(C)C)ccc(C(C)=O)c1O [Example 56, N,N-dimethyl-5-(4-acetyl-3-hydroxy-2-propylphenoxy)pentanoic acid amide] | 17 | 42 |  |
| CCCc1c(OCCCSC(=N)N)ccc(C(C)=O)c1O [Example 60, S-[3-(4-Acetyl-3-hydroxy-2-propylphenoxy)propyl]-isothiuronium hydrobromide] | 28 | 55 |  |
| CCCc1c(OCCCCC(=O)NO)ccc(C(C)=O)c1O [Example 61, 5-(4-Acetyl-3-hydroxy-2-propylphenoxy)pentanehydroxamic acid] | 28 | 70 |  |
| CCCc1c(OCCCCCCSc2nn[nH]n2)ccc(C(C)=O)c1O [Example 71, 5-[6-(4-Acetyl-3-hydroxy-2-propylphenoxy)hexanethio]-tetrazole] | 95 |  | 100 |
| CCCc1c(OCCCCCCCSc2nn[nH]n2)ccc(C(C)=O)c1O [Example 72, 5-[7-(4-Acetyl-3-hydroxy-2-propylphenoxy)heptanethio]-tetrazole] | 100 |  |  |
